Test results taken from the supplement of paper PMC8967900.

How the values were obtained:
Experiment in all cases: selective drug sensitivity score (sDSS, relative to normal bone marrow) (sDSS (score)); higher = more potent and effective on the cell line relative to normal bone marrow cells
Conditions in all cases: 72 h
[1] = system: CCRF-HSB2
[2] = system: COG-LL-355h
[3] = system: KASUMI-2
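Also: ALL cell lines in 384-well plates, five doses spanning 10,000-fold, each plate scaled between vehicle and 100 µmol/L benzalkonium chloride controls, sDSS an adapted area-under-curve metric.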

Compound | selective drug sensitivity score [1] | selective drug sensitivity score [2] | selective drug sensitivity score [3]
CC[C@]1(O)C[C@H]2CN(CCc3c([nH]c4ccccc34)[C@@](C(=O)OC)(c3cc4c(cc3OC)N(C=O)[C@H]3[C@@](O)(C(=O)OC)[C@H](OC(C)=O)[C@]5(CC)C=CCN6CC[C@]43[C@@H]65)C2)C1 [Vincristine] (top concentration 1000 nM) | 1.62 | 1.22 | 8.92
FC(F)c1nc2ccccc2n1-c1nc(N2CCOCC2)nc(N2CCOCC2)n1 [ZSTK474] (top concentration 10000 nM) | 3.76 | 14.4 | 6.76
